Where two headings read alike, the source gives them in different places.
Legend:
[1] = target: T1, HCV NS3/4A protease complex (BMS strain) (Hepatitis C virus genotype 1a, UniProt P27958, C1454S); experiment: Recombinant HCV NS3/4A protease complex FRET peptide assay, BMS strain; type: biochemical, HCV genotype 1a
T1 construct: HCV NS3/4A protease complex (amino acids 1027 to 1711); inferred from pET21b vector and Ni-NTA purification; made in house; host or cells: Escherichia coli BL21 (DE3), pET21b
T1 sequence (P27958 1027-1657 C1454S): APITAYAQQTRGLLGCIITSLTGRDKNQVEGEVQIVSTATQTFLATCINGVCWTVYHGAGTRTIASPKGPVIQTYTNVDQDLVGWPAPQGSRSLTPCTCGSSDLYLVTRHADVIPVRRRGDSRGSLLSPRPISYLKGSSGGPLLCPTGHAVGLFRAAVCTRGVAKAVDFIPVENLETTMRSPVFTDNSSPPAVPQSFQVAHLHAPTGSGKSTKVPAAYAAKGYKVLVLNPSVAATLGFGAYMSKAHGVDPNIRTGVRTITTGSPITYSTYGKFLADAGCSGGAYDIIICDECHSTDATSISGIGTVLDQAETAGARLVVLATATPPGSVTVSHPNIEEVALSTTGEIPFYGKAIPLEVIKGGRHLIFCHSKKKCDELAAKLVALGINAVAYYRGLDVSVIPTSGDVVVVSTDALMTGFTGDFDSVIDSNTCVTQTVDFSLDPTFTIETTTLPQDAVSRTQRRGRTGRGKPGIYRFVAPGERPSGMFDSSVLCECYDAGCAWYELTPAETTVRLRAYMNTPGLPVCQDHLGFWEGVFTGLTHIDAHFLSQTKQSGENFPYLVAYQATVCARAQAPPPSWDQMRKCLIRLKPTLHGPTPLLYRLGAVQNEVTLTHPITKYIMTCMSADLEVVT
T1 sequence (P27958 1658-1711 partner, looked up, stated change not applied): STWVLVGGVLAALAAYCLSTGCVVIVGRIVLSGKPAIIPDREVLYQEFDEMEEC
Text: (§1) Recombinant HCV NS3/4A Protease Complex FRET Peptide Assay
(§2) The purpose of this in vitro assay was to measure the inhibition of HCV NS3 protease complexes, derived from the BMS, H77C or J4l6S strains, as described below, by compounds of the present invention. This assay provides an indication of how effective compounds of the present invention would be in inhibiting HCV proteolytic activity.
Serum from an HCV-infected patient was obtained from Dr. T. Wright, San Francisco Hospital. An engineered full-length cDNA template of the HCV genome (BMS strain) was constructed from DNA fragments obtained by reverse transcription-PCR (RT-PCR) of serum RNA and using primers selected on the basis of homology between other genotype la strains. From the determination of the entire genome sequence, a genotype la was assigned to the HCV isolate according to the classification of Simmonds et al. (See P Simmonds, K A Rose, S Graham, S W Chan, F McOmish, B C Dow, E A Follett, P L Yap and H Marsden, J. Clin. Microbiol., 31(6), 1493-1503 (1993)). […] The infectious clones, H77C (1a genotype) and J4 L6S (1b genotype) were obtained from R. Purcell (NIH) and the sequences are published in Genbank (AAB67036, see Yanagi, M., Purcell, R. H., Emerson, S. U. and Bukh, J. Proc. Natl. Acad. Sci. U.S.A. 94(16),8738-8743 (1997); AF054247, see Yanagi, M., St Claire, M., Shapiro, M., Emerson, S. U., Purcell, R. H. and Bukh, J, Virology 244 (1), 161-172. (1998)).
The BMS, H77C and J4 L6S strains were used for production of recombinant NS3/4A protease complexes. DNA encoding the recombinant HCV NS3/4A protease complex (amino acids 1027 to 1711) for these strains were manipulated as described by P. Gallinari et al. (see Gallinari P, Paolini C, Brennan D, Nardi C, Steinkuhler C, De Francesco R. Biochemistry. 38(17):5620-32, (1999)). Briefly, a three-lysine solubilizing tail was added at the 3′-end of the NS4A coding region. The cysteine in the P1 position of the NS4A-NS4B cleavage site (amino acid 1711) was changed to a glycine to avoid the proteolytic cleavage of the lysine tag. Furthermore, a cysteine to serine mutation was introduced by PCR at amino acid position 1454 to prevent the autolytic cleavage in the NS3 helicase domain. The variant DNA fragment was cloned in the pET21b bacterial expression vector (Novagen) and the NS3/4A complex was expressed in Escherichia coli strain BL21 (DE3) (Invitrogen) following the protocol described by P. Gallinari et al. (see Gallinari P, Brennan D, Nardi C, Brunetti M, Tomei L, Steinkuhler C, De Francesco R., J Virol. 72(8):6758-69 (1998)) with modifications. Briefly, NS3/4A expression was induced with 0.5 mM Isopropyl β-D-1-thiogalactopyranoside (IPTG) for 22 hr at 20° C. A typical fermentation (10 L) yielded approximately 80 g of wet cell paste. The cells were resuspended in lysis buffer (10 mL/g) consisting of 25 mM N-(2-Hydroxyethyl)Piperazine-N′-(2-Ethane Sulfonic acid) (HEPES), pH7.5, 20% glycerol, 500 mM Sodium Chloride (NaCl), 0.5% Triton-X100, 1 ug/ml lysozyme, 5 mM Magnesium Chloride (MgCl2), 1 ug/ml DnaseI, 5 mM β-Mercaptoethanol (βME), Protease inhibitor—Ethylenediamine Tetraacetic acid (EDTA) free (Roche), homogenized and incubated for 20 mins at 4° C. The homogenate was sonicated and clarified by ultra-centrifugation at 235000 g for lhr at 4° C. Imidazole was added to the supernatant to a final concentration of 15 mM and the pH adjusted to 8.0. The crude protein extract was loaded on a Nickel—Nitrilotriacetic acid (Ni—NTA) column pre-equilibrated with buffer B (25 mM HEPES, pH8.0, 20% glycerol, 500 mM NaCl, 0.5% Triton-X100, 15 mM imidazole, 5 mM βME). The sample was loaded at a flow rate of 1 mL/min. The column was washed with 15 column volumes of buffer C (same as buffer B except with 0.2% Triton-X100). The protein was eluted with 5 column volumes of buffer D (same as buffer C except with 200 mM Imidazole). […]

[2] = target: T2, HCV NS3/4A protease complex (H77C strain) (Hepatitis C virus genotype 1a, UniProt P27958, C1454S); experiment: Recombinant HCV NS3/4A protease complex FRET peptide assay, H77C strain; type: biochemical, HCV genotype 1a
T2 construct: HCV NS3/4A protease complex (amino acids 1027 to 1711); inferred from pET21b vector and Ni-NTA purification; made in house; host or cells: Escherichia coli BL21 (DE3), pET21b
T2 sequence (P27958 1027-1657 C1454S): as the sequence (P27958 1027-1657 C1454S) above
T2 sequence (P27958 1658-1711 partner, looked up, stated change not applied): as the sequence (P27958 1658-1711 partner, looked up, stated change not applied) above
Text: as §1, §2
Serum from an HCV-infected patient was obtained from Dr. T. Wright, San Francisco Hospital. An engineered full-length cDNA template of the HCV genome (BMS strain) was constructed from DNA fragments obtained by reverse transcription-PCR (RT-PCR) of serum RNA and using primers selected on the basis of homology between other genotype la strains. From the determination of the entire genome sequence, a genotype la was assigned to the HCV isolate according to the classification of Simmonds et al. (See P Simmonds, K A Rose, S Graham, S W Chan, F McOmish, B C Dow, E A Follett, P L Yap and H Marsden, J. Clin. Microbiol., 31(6), 1493-1503 (1993)). […]

[3] = test system: human pancreatic chymotrypsin; experiment: Specificity assay, human pancreatic chymotrypsin; type: biochemical; conditions: 2 hr enzyme-inhibitor pre-incubation
Protocol: The specificities of compounds of the present invention were determined against a variety of serine proteases: human sputum elastase (HS), porcine pancreatic elastase (PPE) and human pancreatic chymotrypsin and one cysteine protease: human liver cathepsin B. In all cases a 96-well plate format protocol using colorimetric p-nitroaniline (pNA) substrate specific for each enzyme was used as described previously (CT 2633 application) with some modifications to the serine protease assays.
Each assay included a 2 hr enzyme-inhibitor pre-incubation at RT followed by addition of substrate and hydrolysis to ˜30% conversion as measured on a Spectramax Pro microplate reader. Compound concentrations varied from 100 to 0.4 μM depending on their potency.
The final conditions and protocol for the serine protease assays were: • 50 mM Tris(hydroxymethyl)aminomethane hydrochloride (Tris-HCl) pH8, • 0.5M Sodium Sulfate (Na2SO4), 50 mM NaCl, 0.1 mM EDTA, 3% DMSO, • 0.01% Tween-20 with: 133 μM succ-AAA-pNA and 20 nM HS or 8 nM PPE; 100 μM succ-AAPF-pNA and 250 pM Chymotrypsin.
The percentage of inhibition was calculated using the formula: [1−((UVinh−UVblank)/(UVctl−UVblank))]×100
A non-linear curve fit was applied to the inhibition-concentration data, and the 50% effective concentration (IC50) was calculated by the use of Excel Xl-fit software.

Compound `C=CC1C[C@]1(NC(=O)[C@@H]1C[C@@H](Oc2cc(-c3ccccc3)nc3cc(OC)ccc23)CN1C(=O)[C@@H](NC(=O)OC(C)(C)C)C(C)(C)C)C(=O)NS(=O)(=O)c1cccs1` (stereo in doubt) [Compound 1, (1-{4-(7-Methoxy-2-phenylquinolin-4-yloxy)-2-[1-(thiophene-2-sulfonylaminocarbonyl)-2-vinyl-cyclopropylcarbamoyl]-pyrrolidine-1-carbonyl}-2,2-dimethylpropyl)carbamic acid tert-butyl ester] has an IC50 ([1]; BMS strain, read-out: IC50 against the NS3/4A BMS strain in the enzyme assay) of 8 nM, an IC50 ([1]; NS3/4A BMS Strain, activity range, read-out: IC50 a, b, c (Activity Table)) of under 100 nM and an IC50 [2] of 2.2 nM. It also gave an IC50 [3] of over 50000 nM.
